# Data published in patent publication US11219614B2, “Combination cancer therapy with pentaaza macrocyclic ring complex and ascorbate compound” (Galera Labs, LLC, priority 2016, dated 2022).
# Experiments:
# [1] = test system: head and neck squamous cell carcinoma cells (SQ20B); assay: clonogenic cell survival assay, SQ20B; type: cell-based, Human
# Experimental: (§1) FIG. 5 is a plot showing the surviving fraction of SQ20B cells for increasing amounts of ascorbate, as determined by a clonogenic cell survival assay used to determine the effects of the compound alone and in combination with a pentaaza macrocyclic ring complex (GC4419). Human head and neck squamous cell carcinoma cells (SQ20B) were exponentially grown in culture for 48 hours. The cells were then treated with 5-20 μM GC4419 for 24 hours, followed by treatment with 5-20 pmol/cell ascorbate for 1 hour. The cells were then trypsinized, counted, replated at varying lower densities and incubated. Plates were stained and counted for clonogenic survival assays.
# FIG. 7 is a graph showing the surviving fraction of SQ20B cells treated with ascorbate and combinations including ascorbate. The effects of ascorbate in combination with a pentaaza macrocyclic ring complex (GC4419) was tested in a clonogenic cell survival assay to determine the effects of the combination alone and when paired with ionizing radiation. Human head and neck squamous cell carcinoma cells (SQ20B) were plated and grown in culture for 48 hours. The cells were then treated with 5 μM GC4419 for 24 hours and 10 pmol/cell ascorbate (AA) for 1 hour, either alone, in combination (GC+AA), and/or paired with a dose of ionizing radiation (2 Gy). After the ionizing radiation dose, the cells were trypsinized, counted, replated at varying lower densities and incubated. Plates were stained and counted for clonogenic survival assays.
# FIG. 8 is a graph showing the surviving fraction of SQ20B cells treated with ascorbate and combinations including ascorbate. The effects of ascorbate in combination with a pentaaza macrocyclic ring complex (GC4419) was tested in a clonogenic cell survival assay to determine the effects of the combination alone and when paired with the chemotherapeutic agent cisplatin. Human head and neck squamous cell carcinoma cells (SQ20B) were plated and grown in culture for 48 hours. The cells were then treated with cisplatin for 6 hours, 10 μM GC4419 for 3 hours, and 10 pmol/cell ascorbate (AA) for 1 hour. The cells were then trypsinized, counted, replated at varying lower densities and incubated. Plates were stained and counted for clonogenic survival assays.
# as §1, with “The effect” for “FIG. 5 is a plot showing the surviving fraction”, “ascorbate was tested in” for “SQ20B cells for increasing amounts of ascorbate, as determined by”, “assay” for “assay used”
# The effects of ascorbate in combination with a pentaaza macrocyclic ring complex (GC4419) was tested in a clonogenic cell survival assay to determine the effects of the combination alone and when paired with ionizing radiation. Human head and neck squamous cell carcinoma cells (SQ20B) were plated and grown in culture for 48 hours. […] After the ionizing radiation dose, the cells were trypsinized, counted, replated at varying lower densities and incubated. Plates were stained and counted for clonogenic survival assays. […]
# [2] = test system: VEGFr inhibitor-induced pulmonary disease; conditions: rat model; cited from earlier work
smiles,measurement,setting,value
[Cl][Mn][Cl].c1cc2nc(c1)CN[C@H]1CCCC[C@@H]1NCCN[C@H]1CCCC[C@@H]1NC2 [GC4419],synergistic activity of the combination,"[1]; 5 μM GC4419 24 h + 10 pmol/cell ascorbate 1 h (GC+AA), FIG. 7",more than merely an additive effect
same,cell killing (clonogenic survival),"[1]; 5 μM GC4419 24 h + 10 pmol/cell ascorbate 1 h (GC+AA), compared to control and to each alone, FIG. 7",significant enhancements in cell killing
same,cytotoxicity (clonogenic survival),"[1]; 5-20 pmol/cell ascorbate 1 h in combination with 5, 10 or 20 μM GC4419 24 h, FIG. 5",increases the cytotoxicity of GC4419 or ascorbate
same,sensitization to ionizing radiation,"[1]; GC+AA+IR (2 Gy) compared to IR 2Gy alone, FIG. 7",sensitized the cancer cells to radiation
same,cell killing (clonogenic survival),"[1]; cisplatin 6 h + 10 μM GC4419 3 h + 10 pmol/cell ascorbate 1 h, compared to control and cisplatin, GC4419 or ascorbate monotherapies, FIG. 8",significant enhancements in cell killing
same,pulmonary disease,[2],attenuate VEGFr inhibitor-induced pulmonary disease
